This is an account of results in patent publication US12092631B2, “Optical thromboelastography systems and methods” (The General Hospital Corporation, priority 2014, dated 2024).

Test [1] relates to platelets in platelet rich plasma. Kind of test: OTEG platelet aggregation/disaggregation in platelet rich plasma specimens. It is filed as cell-based. To be noted: FIG. 19A. As for the experimental part:
FIG. 15B is a block-scheme representing an embodiment of the processing algorithm according to the invention for calculating the platelet aggregate size from speckle fluctuations in the plasma. Platelet rich plasma specimen is transferred into an OTEG cartridge, customized for platelet function assessment and preloaded with 20 μl Adenosine 5′-diphosphate solution (Sigma-Aldrich) (i.e. 5 μM final concentration of ADP in the […]). The cartridge is inserted in the OTEG device and speckle acquisition begins immediately. During acquisition, ADP triggers conformational changes followed by aggregation, which increase the average scattering particle radius. Since Ca′ ions are absent, coagulation cascade is not initiated and the plasma appears as a primarily viscous liquid with the viscosity of η=3 centipoises (@ 37° C.), particularly at small length scales probed by platelets. Compared to small isolated platelets, large aggregates experience a shorter range of diffusive motion and induce slower speckle fluctuations. To estimate the rate of platelet aggregation, speckle frames are processed and speckle intensity autocorrelation functions are calculated. Since plasma is an optically dilute material, the mean square displacements (MSD) values of platelet aggregates can be extracted from the g2(t) curves, using the DLS formalism, as shown in FIG. 7(B), box 2. Fitting the MSD to a linear model of MSD=6Dt at early times provides the diffusion coefficient, D, of scattering particles. The effective scattering radius is then obtained from the Stokes-Einstein relation as: α=KbT/(6πDη), where Kb is the Boltzman constant and T is the temperature (degrees Kelvin).

Test [2] has as its system platelets in human whole blood. Kind of test: OTEG platelet aggregate size in ADP-activated human whole blood. To be noted: FIG. 8B. The format is cell-based. As for the experimental part: FIGS. 8A, 8B: Preliminary studies to assess platelet aggregation using OTEG methodology. FIG. 8A: Increasing aggregate radius, a, of polystyrene beads (rad=1.5 μm) caused by adding MgCl2 salt is detected by OTEG. Aggregate size was related with salt concentration, confirmed by other reports. FIG. 8B: In human whole blood, OTEG detects a 5-fold and 2.5-fold increase in aggregate size with addition of 10 and 5 μM ADP relative to blood without ADP (control). […] To enable platelet function assessment (PLT channel) via the embodiment of the OTEG device of the present invention, a new strategy was implemented to quantify platelet aggregation in whole blood. […] To estimate the rate and extent of platelet aggregation, speckle frames are processed and MSD values are calculated, as above (FIG. 5; box 3). […] The effective particle radius, a, is then obtained from the Stokes-Einstein relation (SER) (FIG. 5: box 4c), the aggregate growth from the baseline at time t=0 is plotted, and the maximum extent of platelet aggregation (RPLT) is estimated at 10 min to quantify platelet function (FIG. 12B). […] We further verified the capability to detect platelet aggregation in ADP-activated blood and monitored the change of effective aggregate radius. […] Clearly, the effective aggregate radius increase with ADP concentration and can be detected with OTEG with high sensitivity. […]

Regarding `COC(=O)[C@H](c1ccccc1Cl)N1CCc2sccc2C1` [Clopidogrel], the “platelet aggregation detected by OTEG” value was “rapid initial aggregation, followed by a rapid disaggregation” in test [1] (ADP 5 μM plus Clopidogrel 3 μM) and “no aggregation” in test [1] (ADP 5 μM plus Clopidogrel 30 μM).

For the compound `Nc1ncnc2c1ncn2[C@@H]1O[C@H](COP(=O)(O)OP(=O)(O)O)[C@@H](O)[C@H]1O` [ADP, Adenosine 5′-diphosphate], in test [1] (ADP final concentration 5 μM), the “platelet aggregation detected by OTEG” value is “rapid and complete platelet aggregation”. Further, the “increase in aggregate size relative to blood without ADP (control)” value in test [2] (5 μM ADP) stood at 2.5 fold; in test [2] (10 μM ADP), 5 fold.
